Source: patent US20220218765A1, “ASSISTANT AGENT FOR ASSISTING INTRODUCTION INTO LIVING BODY AND METHOD OF UTILIZING THE SAME” (SHINBIOSIS CORPORATION, priority 2019, published 2022)

System: STZ-induced diabetes model mouse (STZ-mouse)
Experiment: Blood glucose level in STZ-induced diabetes model mouse (Test Example 4-1)
Type: in vivo, CD-1 (ICR) mice
Settings: STZ-mice, Day 14 after the treatment
Protocol: The “complex containing an active substance” was injected into the intestine of a STZ-induced diabetes model mouse (STZ-mouse) together with the “assistant agent for assisting introduction into a living body”, and then measurement of a “change in plasma glucose (blood glucose level) (Test Example 4-1)” and “measurement of the plasma insulin level (Test Example 4-2)” at the end of the treatment were performed.
“Compositions containing an active substance” below were prepared by mixing the above-described “active substance complex (Bio3 formulation)” with the respective “assistant agents for assisting introduction into a living body” above, and were then used in the experiments.
CD-1 (ICR) mice (male, 4 weeks old) purchased from Charles River Japan were preliminarily kept for 1 week before experiment.
Procedure for Producing Disease Model Mice STZ (40 mg/kg) prepared in a citrate buffer (100 mmol/L, pH 4.5) was intravenously administered (iv) to the tail veins of the above-mentioned mice.
One week after, blood was collected from ophthalmic venous plexus of the mice with a capillary, and the mice were divided into the following four groups (six mice per group) based on the measured blood glucose levels such that the average blood glucose levels of the groups were equal to one another as follows. […]

Substance: insulin
- blood glucose level as ratio to the non-treated control group: up to 60%
